Assay results taken from PMC9140012, “Epigenetic-Like Stimulation of Receptor Expression in SSTR2 Transfected HEK293 Cells as a New Therapeutic Strategy” (Cancers, 2022).
Where a name gives a salt, the structure may show the parent alone. Read-outs that look alike come from different tables or passages of the source.

Legend:
HEKsst2 = assay: Chemotoxicity, colony formation assay (CFA), HEKsst2; format: cell-based; conditions: for IC50: read-out: half maximum inhibitor concentrations (IC50)
Protocol: (§1) HEK293 cells were obtained from the German Resource Center for Biological Material (DSMZ, Braunschweig, Germany) and grown in Dulbecco’s modified Eagle´s medium supplemented with 10% fetal calf serum (FCS) in a humidified atmosphere containing 5% CO2. Cells were transfected with plasmid, encoding murine HA-tagged SSTR2 receptors using lipofectamine according to the manufacturing instructions (Thermofisher, Darmstadt, Germany). Stable transfectants were selected in the presence of 500 µg/mL G-418 and characterized using radioligand binding assays, Western blot analyses, surface ELISA assays and immunocytochemistry as described previously. Non-transfected HEK293 cells were maintained under equal conditions as HEKsst2 except for the addition of G-418. In the following, HEK293 cells and SSTR2 transfected HEK293 cells are termed as HEK and HEKsst2, respectively. The human prostate carcinoma cell line PC3 (ATCC®, Manassas, VA, USA) was cultured in a RPMI medium with 10% (v/v) FCS and 1% (v/v) non-essential amino acids (NEA). […] The culture medium of each cell line was renewed every 2–3 days. Via a PCR test, each cell line is proven to be free of mycoplasmas.
(§2) HEKsst2 and PC3 were plated in T75 flasks on day zero. […] Cells were incubated in DMEM (HEKsst2) or an RPMI 1640 (PC3) nutrient-deficient medium (lacking medium additives and FCS) until day three at 37 °C. For a further two days, HEKsst2 and PC3 were incubated in a full medium (with medium additives and FCS). On day five, cells were trypsinized and plated for the CFAs.
(§3) To determine the radiosensitivity and radiotoxicity, the clonogene cell survival was analyzed. Colony formation assays were performed as described earlier. […] Briefly, after detaching the treated cells, an aliquot of the cell suspension per dose point was distributed in T25 culture flasks for the colony formation test and is placed in an incubator for 7 (HEKsst2) or 10 days (PC3). To stop colony formation, the cells were fixed with ethanol 80% (v/v) followed by staining with crystal violet solution. The colony counting was carried out under a microscope (25× magnification). Colonies of more than 50 cells were scored as survivors. The plating efficiency (PE) and the survival rate (survival fraction SF) were calculated for irradiated and unirradiated cells based on the number of seeded cells.
(§4) To examine the statistical significance, an unpaired student’s t-test was used. A difference between two independent samples is significant if the probability of error p ≤ 0.05. For the statistical evaluation, MS Office Excel was used. […]

[1] = design: method as in PMID 25600060; conditions: fractionated external radiation; cited from earlier work
PC3 [2] = assay: Chemotoxicity, colony formation assay (CFA), PC3; format: cell-based, human; conditions: for Survival Fraction: day one to three in deficient RPMI 1640, 2 days full medium, CFA, ± SD; for IC50: Homo sapiens, PC-3
Protocol: as §1, §2, §3, §4

[3] = test system: cell lines HEKsst2 and PC3; assay: IC20/IC40 of single epidrugs by colony formation assay, HEKsst2 and PC3; format: cell-based
Protocol: as §2
To determine the radiosensitivity and radiotoxicity, the clonogene cell survival was analyzed. Colony formation assays were performed as described earlier. The following steps have been done for each of the treatment procedures. Briefly, after detaching the treated cells, an aliquot of the cell suspension per dose point was distributed in T25 culture flasks for the colony formation test and is placed in an incubator for 7 (HEKsst2) or 10 days (PC3). To stop colony formation, the cells were fixed with ethanol 80% (v/v) followed by staining with crystal violet solution. The colony counting was carried out under a microscope (25× magnification). Colonies of more than 50 cells were scored as survivors. The plating efficiency (PE) and the survival rate (survival fraction SF) were calculated for irradiated and unirradiated cells based on the number of seeded cells.
To determine the Bmax values and the Kd, the GraphPad Prism 9.0 software was used. Confidence Intervals (CI) express a 95% likelihood of the nonlinear fit.

[4] = test system: relapsed or refractory neuroblastoma; design: method as in PMID 34270348; conditions: I-131-MIBG in combination with vorinostat, phase II; cited from earlier work
Excerpt: An overview of studies investigating the synergistic improvement of cancer therapy using HDACi in clinical trials is given by Hontecillas-Prieto et al..

[5] = test system: Neuroendocrine Tumor Cells; design: method as in PMID 30796167; conditions: 5-fluorouracil in combination with decitabine or tacedinaline; cited from earlier work
PC3 [6] = conditions: PC3 compared to HEKsst2; cited from earlier work
Excerpt: The radiosensitivity expressed as SF after external X-ray irradiation is similar for the cell lines HEKsst2 and PC3 (Figure 4). […] One exception is the dose point at 0.6 Gy X-rays for not stimulated vs. stimulated PC3 cells. […] Whereas the radiosensitivity of non-stimulated HEK ...

For `CCCC(CCC)C(=O)O` [VPA, valproic acid sodium salt], the Survival Fraction (HEKsst2; 0.5 mM VPA, day one to three in deficient medium, 2 days full medium, CFA, ± SD) was 78.7 ± 10.8%, the Survival Fraction (HEKsst2; 1.0 mM VPA, day one to three in deficient medium, 2 days full medium, CFA, ± SD) was 67.5 ± 15.9% and the Survival Fraction (HEKsst2; 2.5 mM VPA, day one to three in deficient medium, 2 days full medium, CFA, ± SD) was 18.5 ± 2.2%. For the same compound, the Survival Fraction (HEKsst2; 5.0 mM VPA, day one to three in deficient medium, 2 days full medium, CFA, ± SD) was 21.0 ± 5.1%, the Survival Fraction (HEKsst2; 10 mM VPA, day one to three in deficient medium, 2 days full medium, CFA, ± SD) was 53.5 ± 5.8% and the Survival Fraction (HEKsst2; 25 mM VPA, day one to three in deficient medium, 2 days full medium, CFA, ± SD) was 8.0 ± 0.8%. For the same compound, the IC50 (HEKsst2) was 1850 µM, the radiosensitization [1] was “radiosensitization effect” and the Survival Fraction (PC3 [2]; 0.1 mM VPA) was 95.6 ± 4.5%. For the same compound, the Survival Fraction (PC3 [2]; 0.5 mM VPA) was 95.6 ± 2.3%, the Survival Fraction (PC3 [2]; 1.0 mM VPA) was 72.6 ± 11.6% and the Survival Fraction (PC3 [2]; 2.5 mM VPA) was 69.4 ± 6.0%. It also gave a Survival Fraction (PC3 [2]; 5.0 mM VPA) of 35.1 ± 4.6%, a Survival Fraction (PC3 [2]; 10 mM VPA) of 24.0 ± 1.2% and a Survival Fraction (PC3 [2]; 25 mM VPA) of 1.2 ± 1.1%. The Survival Fraction (PC3 [2]; 50 mM VPA) was 1.7 ± 1.1%, the IC50 (PC3 [2]; read-out: IC50) was 3900 µM and the IC20 [3] was 600 µM. The IC40 ([3]; VPA, value used for both HEKsst2 and PC3, CFA) was 1000 µM.
For `O=C(CCCCCCC(=O)Nc1ccccc1)NO` [vorinostat], the radiation sensitizing [4] is given as “beneficial radiation sensitizing properties”.
For `O=c1[nH]cc(F)c(=O)[nH]1` [5-fluorouracil], the radiosensitization [5] is listed as “significant effects on radiosensitization”.
For `Nc1ncn([C@H]2C[C@H](O)[C@@H](CO)O2)c(=O)n1` [5-aza-dC, 5-aza-2′-deoxycytidine], the “Survival Fraction” value (HEKsst2; 0.01 µM 5-aza-dC, added day one to day three in nutrient-deficient DMEM, then 2 days full medium, CFA day five, mean ± SD, three independent trials in triplicate) was 97.9 ± 1.8%, the “Survival Fraction” value (HEKsst2; 0.05 µM 5-aza-dC, day one to three in deficient medium, 2 days full medium, CFA, ± SD) was 118.0 ± 31% and the “Survival Fraction” value (HEKsst2; 0.1 µM 5-aza-dC, day one to three in deficient medium, 2 days full medium, CFA, ± SD) was 83.2 ± 4.8%. The “Survival Fraction” value (HEKsst2; 0.5 µM 5-aza-dC, day one to three in deficient medium, 2 days full medium, CFA, ± SD) was 96.6 ± 13.2%, the “Survival Fraction” value (HEKsst2; 1.0 µM 5-aza-dC, day one to three in deficient medium, 2 days full medium, CFA, ± SD) was 93.7 ± 1.3% and the “Survival Fraction” value (HEKsst2; 5.0 µM 5-aza-dC, day one to three in deficient medium, 2 days full medium, CFA, ± SD) was 42.3 ± 4.8%. The “Survival Fraction” value (HEKsst2; 10 µM 5-aza-dC, day one to three in deficient medium, 2 days full medium, CFA, ± SD) was 18.6 ± 0.8%, the “Survival Fraction” value (HEKsst2; 25 µM 5-aza-dC, day one to three in deficient medium, 2 days full medium, CFA, ± SD) was 1.7 ± 0.4% and the IC50 (HEKsst2; 5-aza-dC as single epidrug, HEKsst2, CFA) was 3.9 µM. For the same compound, the “Survival Fraction” value (PC3 [2]; 0.01 µM 5-aza-dC) was 67.1 ± 3.3%, the “Survival Fraction” value (PC3 [2]; 0.05 µM 5-aza-dC) was 52.1 ± 19.0% and the “Survival Fraction” value (PC3 [2]; 0.1 µM 5-aza-dC) was 69.4 ± 2.1%. For the same compound, the “Survival Fraction” value (PC3 [2]; 0.5 µM 5-aza-dC) was 41.6 ± 1.8%, the “Survival Fraction” value (PC3 [2]; 1.0 µM 5-aza-dC) was 24.9 ± 2.0% and the “Survival Fraction” value (PC3 [2]; 5.0 µM 5-aza-dC) was 27.5 ± 3.2%. For the same compound, the “Survival Fraction” value (PC3 [2]; 10 µM 5-aza-dC) was 9.4 ± 0.3%, the “Survival Fraction” value (PC3 [2]; 25 µM 5-aza-dC) was 1.9 ± 0.02% and the IC50 (PC3 [2]) was 0.3 µM. For the same compound, the “survival of 5-aza-dC treated cells” value (PC3 [6]) was “lower survival” and the IC20 ([3]; 5-aza-dC, value used for both HEKsst2 and PC3, CFA) was 0.25 µM.
